Consider 22 molecules from paper PMC8315004, “Discovery of Small-Molecule Inhibitors of SARS-CoV-2 Proteins Using a Computational and Experimental Pipeline” (Frontiers in Molecular Biosciences, 2021).

Where a name gives a salt, the structure may show the parent alone.

For the assay, the target named is SARS-CoV-2 M^pro (Severe acute respiratory syndrome coronavirus 2, UniProt P0DTD1). The assay is described as follows: biochemical. Set-up: inhibition: dose or concentration left out as unconfirmed. The following applies: for Normalized Percent FRET inhibition / inhibition: initial screen, Table S4; for Normalized Percent FRET inhibition: 100 μM of drug.
Setting [1] is: read-out: Normalized Percent FRET inhibition.

Take `Cc1cc(O)c(C(=O)N[C@@H](C(=O)N[C@@H]2C(=O)N3C(C(=O)O)=C(CSc4nnnn4C)CS[C@H]23)c2ccc(O)cc2)cn1` [Cefpiramide acid]: the “Normalized Percent FRET inhibition” value was determined as 7.373%. For orientation: inhibition means the drop in the measured response relative to a control, in per cent. On to `CCOC(=O)N[C@@H]1CC[C@@H]2[C@@H](C1)C[C@H]1C(=O)O[C@H](C)[C@H]1[C@H]2/C=C/c1ccc(-c2cccc(F)c2)cn1` [Vorapaxar], for which the inhibition under setting [1] is -0.416%. For the molecule `CCOc1nc2cccc(C(=O)OCc3oc(=O)oc3C)c2n1Cc1ccc(-c2ccccc2-c2noc(=O)[nH]2)cc1` [Azilsartan Medoxomil], the inhibition under setting [1] is -1.99%. The same measure, in the same setting: for `Cc1c(O)cccc1C(=O)N[C@@H](CSc1ccccc1)[C@H](O)CN1C[C@H]2CCCC[C@H]2C[C@H]1C(=O)NC(C)(C)C` [Nelfinavir Mesylate] the value was 30.8%. With Ginkgolide C, the “Normalized Percent FRET inhibition” value is listed as -0.7419%. Turning to `C[C@H]1CN(C[C@H](Cc2ccccc2)C(=O)NCC(=O)O)CC[C@@]1(C)c1cccc(O)c1` [Alvimopan], the inhibition under setting [1] is -3.26%. `C#C[C@]1(O)CC[C@H]2[C@@H]3CCc4cc(OC)ccc4[C@H]3CC[C@@]21C` [Mestranol]: the inhibition under setting [1] is -1.1%. For the molecule `CC(=O)O[C@H]1C[C@@H]2CC[C@@H]3[C@H](CC[C@@]4(C)[C@H]3C[C@H]([N+]3(C)CCCCC3)[C@@H]4OC(C)=O)[C@@]2(C)C[C@@H]1[N+]1(C)CCCCC1` [Pancuronium bromide], under setting [1], the inhibition at 100 µM turned out to be 10%. Regarding `C=CC(=O)N1CCC[C@@H](n2nc(-c3ccc(Oc4ccccc4)cc3)c3c(N)ncnc32)C1` [Ibrutinib], under setting [1], the inhibition is -1.91%. Same read-out and setting: for `COc1cc2nccc(Oc3ccc(NC(=O)C4(C(=O)Nc5ccc(F)cc5)CC4)cc3)c2cc1OC` [Cabozantinib Malate] the value was 0.386%; for `Cc1cnc(C(=O)N[C@H]2CCCCC/C=C\[C@@H]3C[C@@]3(C(=O)NS(=O)(=O)C3CC3)NC(=O)[C@@H]3C[C@@H](Oc4nc5ccccc5c5ccccc45)CN3C2=O)cn1` [Paritaprevir], 0.758%.

With `COc1cc(C(=O)NS(=O)(=O)c2ccccc2C)ccc1Cc1cn(C)c2ccc(NC(=O)OC3CCCC3)cc12` [Zafirlukast], under setting [1], the inhibition was found to be 3.83%. With `COc1cc2nc(N3CCN(C(=O)C4COc5ccccc5O4)CC3)nc(N)c2cc1OC` (stereo not shown) [Doxazosin mesylate], the inhibition under setting [1] amounted to 0.919%. Take `C[C@@H](c1nc(-c2ccc(C#N)cc2)cs1)[C@](O)(Cn1cncn1)c1cc(F)ccc1F` [Isavuconazole]: the inhibition under setting [1] is -0.886%. On the same count and under the same terms, to `NS(=O)(=O)c1cc2c(cc1C(F)(F)F)NC(Cc1ccccc1)NS2(=O)=O` (stereo not shown) [Bendroflumethiazide] belongs 11.6%.

Turning to `CNC(=O)c1cnn(-c2nc(N)c3ncn([C@@H]4O[C@H](CO)[C@@H](O)[C@H]4O)c3n2)c1` [Regadenoson], the “Normalized Percent FRET inhibition” value is reported as -0.1877%. `C[C@@H]1O[C@@H](OC[C@H]2O[C@@H](Oc3c(-c4ccc(O)c(O)c4)oc4cc(O)cc(O)c4c3=O)[C@H](O)[C@@H](O)[C@@H]2O)[C@H](O)[C@H](O)[C@H]1O` [Rutin]: the inhibition under setting [1] was -0.554%.

In the case of `CO[C@@H]1[C@@H](OC(N)=O)[C@@H](O)[C@H](Oc2ccc3c(O)c(NC(=O)c4ccc(O)c(CC=C(C)C)c4)c(=O)oc3c2C)OC1(C)C` [Novobiocin Sodium], the inhibition under setting [1] is -0.228%.

Take `CC1=C(C(=O)OC(C)C)C(c2cccc([N+](=O)[O-])c2)C(C(=O)OC2CN(C(c3ccccc3)c3ccccc3)C2)=C(N)N1` (stereo not shown) [Azelnidipine]: under setting [1], the inhibition was 8.17%. The same measure, in the same setting: to `CC(=O)O[C@H]1C[C@@H]2CC[C@@H]3[C@H](CC[C@@]4(C)[C@H]3C[C@H]([N+]3(C)CCCCC3)[C@@H]4OC(C)=O)[C@@]2(C)C[C@@H]1N1CCCCC1` [Vecuronium bromide] belongs 4.13%. Turning to `Cc1cncc(CN2CCC(=C3c4ccc(Cl)cc4CCc4cccnc43)CC2)c1.O=C(O)/C=C/C(=O)O` [Rupatadine Fumarate], the “Normalized Percent FRET inhibition” value is recorded as -2.415%. In the case of `CCc1c2c(nc3ccc(OC(=O)N4CCC(N5CCCCC5)CC4)cc13)-c1cc3c(c(=O)n1C2)COC(=O)[C@]3(O)CC.Cl.O.O.O` [Irinotecan hydrochloride trihydrate], the “Normalized Percent FRET inhibition” value was -2.22%.
